Assay results published in patent US9605004B2, “Chemical compounds” (SYNGENTA LIMITED, priority 2013, dated 2017).

Experiments:
[1] = system: a variety of test species; test: Post-emergence herbicidal activity (Example 8b, Table 3); format: in vivo; settings: application post-emergence, rate 1000 g/ha, evaluated after 13 days, scale 0-5; for Herbicidal damage score, ABUTH: Abutilon theophrasti; for Herbicidal damage score, ALOMY: Alopecurus myosuroides; for Herbicidal damage score, AMARE: Amaranthus retroflexus; for Herbicidal damage score, ECHCG: Echinochloa crus-galli; for Herbicidal damage score, SETFA: Setaria faberi; for Herbicidal damage score, ZEAMX: Zea mays
Method in brief: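 Pot-grown plants, 8 days after sowing, were sprayed with compound formulated in acetone/water (50:50) with 0.5% Tween 20. Glasshouse conditions 24/16° C day/night, 14 h light, 65% humidity; damage scored after 13 days on a 0 (none) to 5 (total) scale.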

[2] = system: a variety of test species; test: Pre-emergence herbicidal activity (Example 8a, Table 2); format: in vivo; design: key: 0 = no damage to plant, 5 = total damage to plant; settings: application pre-emergence, rate 1000 g/ha, evaluated after 13 days
Method in brief: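 Compounds are applied pre-emergence as an aqueous spray, formulated in 50:50 acetone/water containing 0.5% Tween 20, to pots sown one day earlier. Plants grow in a controlled glasshouse and are scored 13 days later for damage from 0 to 5.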

CC1=C(Cl)C(=O)N(c2cc(C(F)(F)F)n(C(C)C)n2)C1O (stereo not drawn) [Compound C4]
Herbicidal damage score, ABUTH [1]: 4 | Herbicidal damage score, ALOMY [1]: 4 | Herbicidal damage score, AMARE [1]: 4 | Herbicidal damage score, ECHCG [1]: 5 | Herbicidal damage score, SETFA [1]: 4 | Herbicidal damage score, ZEAMX [1]: 2 | Pre-emergence herbicidal activity, damage score ABUTH [2]: 4 | Pre-emergence herbicidal activity, damage score ALOMY [2]: 3 | Pre-emergence herbicidal activity, damage score AMARE [2]: 4 | Pre-emergence herbicidal activity, damage score ECHCG [2]: 4 | Pre-emergence herbicidal activity, damage score SETFA [2]: 4 | Pre-emergence herbicidal activity, damage score ZEAMX [2]: 3

CC1=C(Cl)C(=O)N(c2cc(C(F)(F)F)n(CC(F)(F)F)n2)C1O (stereo not drawn) [Compound C5]
Herbicidal damage score, ABUTH [1]: 4 | Herbicidal damage score, ALOMY [1]: 5 | Herbicidal damage score, AMARE [1]: 5 | Herbicidal damage score, ECHCG [1]: 5 | Herbicidal damage score, SETFA [1]: 5 | Herbicidal damage score, ZEAMX [1]: 3 | Pre-emergence herbicidal activity, damage score ABUTH [2]: 2 | Pre-emergence herbicidal activity, damage score ALOMY [2]: 3 | Pre-emergence herbicidal activity, damage score AMARE [2]: 3 | Pre-emergence herbicidal activity, damage score ECHCG [2]: 4 | Pre-emergence herbicidal activity, damage score SETFA [2]: 4 | Pre-emergence herbicidal activity, damage score ZEAMX [2]: 2

CCn1nc(N2C(=O)C(Cl)=C(C)C2O)cc1C(F)(F)F (stereo not drawn) [Compound C6]
Herbicidal damage score, ABUTH [1]: 5 | Herbicidal damage score, ALOMY [1]: 5 | Herbicidal damage score, AMARE [1]: 5 | Herbicidal damage score, ECHCG [1]: 5 | Herbicidal damage score, SETFA [1]: 4 | Herbicidal damage score, ZEAMX [1]: 3 | Pre-emergence herbicidal activity, damage score ABUTH [2]: 5 | Pre-emergence herbicidal activity, damage score ALOMY [2]: 4 | Pre-emergence herbicidal activity, damage score AMARE [2]: 5 | Pre-emergence herbicidal activity, damage score ECHCG [2]: 5 | Pre-emergence herbicidal activity, damage score SETFA [2]: 4 | Pre-emergence herbicidal activity, damage score ZEAMX [2]: 4

CC1=C(Cl)C(=O)N(c2cc(C(F)(F)F)n(C(C)C)n2)C1O (stereo not drawn) [Compound C7]
Herbicidal damage score, ABUTH [1]: 4 | Herbicidal damage score, ALOMY [1]: 4 | Herbicidal damage score, AMARE [1]: 4 | Herbicidal damage score, ECHCG [1]: 5 | Herbicidal damage score, SETFA [1]: 4 | Herbicidal damage score, ZEAMX [1]: 2 | Pre-emergence herbicidal activity, damage score ABUTH [2]: 4 | Pre-emergence herbicidal activity, damage score ALOMY [2]: 3 | Pre-emergence herbicidal activity, damage score AMARE [2]: 4 | Pre-emergence herbicidal activity, damage score ECHCG [2]: 4 | Pre-emergence herbicidal activity, damage score SETFA [2]: 4 | Pre-emergence herbicidal activity, damage score ZEAMX [2]: 3

CCn1nc(N2C(=O)C(Cl)=C(C)C2O)cc1C(C)(C)C (stereo not drawn) [Compound C8]
Herbicidal damage score, ABUTH [1]: 5 | Herbicidal damage score, ALOMY [1]: 5 | Herbicidal damage score, AMARE [1]: 4 | Herbicidal damage score, ECHCG [1]: 5 | Herbicidal damage score, SETFA [1]: 5 | Herbicidal damage score, ZEAMX [1]: 3 | Pre-emergence herbicidal activity, damage score ABUTH [2]: 4 | Pre-emergence herbicidal activity, damage score ALOMY [2]: 4 | Pre-emergence herbicidal activity, damage score AMARE [2]: 5 | Pre-emergence herbicidal activity, damage score ECHCG [2]: 4 | Pre-emergence herbicidal activity, damage score SETFA [2]: 5 | Pre-emergence herbicidal activity, damage score ZEAMX [2]: 2

CC1=C(Cl)C(=O)N(c2cc(C(F)(F)F)n(CC(F)(F)F)n2)C1O (stereo not drawn) [Compound C9]
Herbicidal damage score, ABUTH [1]: 4 | Herbicidal damage score, ALOMY [1]: 5 | Herbicidal damage score, AMARE [1]: 5 | Herbicidal damage score, ECHCG [1]: 5 | Herbicidal damage score, SETFA [1]: 5 | Herbicidal damage score, ZEAMX [1]: 3 | Pre-emergence herbicidal activity, damage score ABUTH [2]: 2 | Pre-emergence herbicidal activity, damage score ALOMY [2]: 3 | Pre-emergence herbicidal activity, damage score AMARE [2]: 3 | Pre-emergence herbicidal activity, damage score ECHCG [2]: 4 | Pre-emergence herbicidal activity, damage score SETFA [2]: 4 | Pre-emergence herbicidal activity, damage score ZEAMX [2]: 2

CC1=C(Cl)C(=O)N(c2cc(C#N)n(CC(F)(F)F)n2)C1O (stereo not drawn) [Compound C11]
Herbicidal damage score, ABUTH [1]: 5 | Herbicidal damage score, ALOMY [1]: 2 | Herbicidal damage score, AMARE [1]: 1 | Herbicidal damage score, ECHCG [1]: 4 | Herbicidal damage score, SETFA [1]: 3 | Herbicidal damage score, ZEAMX [1]: 2 | Pre-emergence herbicidal activity, damage score ABUTH [2]: 5 | Pre-emergence herbicidal activity, damage score ALOMY [2]: 0 | Pre-emergence herbicidal activity, damage score AMARE [2]: 2 | Pre-emergence herbicidal activity, damage score ECHCG [2]: 1 | Pre-emergence herbicidal activity, damage score SETFA [2]: 1 | Pre-emergence herbicidal activity, damage score ZEAMX [2]: 1

CC1=C(Cl)C(=O)N(c2cc(C)n(C(F)F)n2)C1O (stereo not drawn) [Compound C12]
Herbicidal damage score, ABUTH [1]: 5 | Herbicidal damage score, ALOMY [1]: 4 | Herbicidal damage score, AMARE [1]: 5 | Herbicidal damage score, ECHCG [1]: 5 | Herbicidal damage score, SETFA [1]: 5 | Herbicidal damage score, ZEAMX [1]: 3 | Pre-emergence herbicidal activity, damage score ABUTH [2]: 5 | Pre-emergence herbicidal activity, damage score ALOMY [2]: 3 | Pre-emergence herbicidal activity, damage score AMARE [2]: 5 | Pre-emergence herbicidal activity, damage score ECHCG [2]: 4 | Pre-emergence herbicidal activity, damage score SETFA [2]: 3 | Pre-emergence herbicidal activity, damage score ZEAMX [2]: 2

CC1=C(Cl)C(=O)N(c2cc(C)n(C(F)(F)F)n2)C1O (stereo not drawn) [Compound C13]
Herbicidal damage score, ABUTH [1]: 1 | Herbicidal damage score, ALOMY [1]: 1 | Herbicidal damage score, AMARE [1]: 1 | Herbicidal damage score, ECHCG [1]: 1 | Herbicidal damage score, SETFA [1]: 2 | Herbicidal damage score, ZEAMX [1]: 1 | Pre-emergence herbicidal activity, damage score ABUTH [2]: 3 | Pre-emergence herbicidal activity, damage score ALOMY [2]: 2 | Pre-emergence herbicidal activity, damage score AMARE [2]: 2 | Pre-emergence herbicidal activity, damage score ECHCG [2]: 2 | Pre-emergence herbicidal activity, damage score SETFA [2]: 2 | Pre-emergence herbicidal activity, damage score ZEAMX [2]: 0

CC1=C(Cl)C(=O)N(c2nn(C)c(C(C)(C)C)c2C#N)C1O (stereo not drawn) [Compound D1]
Herbicidal damage score, ABUTH [1]: 5 | Herbicidal damage score, ALOMY [1]: 4 | Herbicidal damage score, AMARE [1]: 5 | Herbicidal damage score, ECHCG [1]: 5 | Herbicidal damage score, SETFA [1]: 5 | Herbicidal damage score, ZEAMX [1]: 3 | Pre-emergence herbicidal activity, damage score ABUTH [2]: 5 | Pre-emergence herbicidal activity, damage score ALOMY [2]: 4 | Pre-emergence herbicidal activity, damage score AMARE [2]: 5 | Pre-emergence herbicidal activity, damage score ECHCG [2]: 4 | Pre-emergence herbicidal activity, damage score SETFA [2]: 4 | Pre-emergence herbicidal activity, damage score ZEAMX [2]: 2

CC1=C(Cl)C(=O)N(c2nn(C)c(C(C)(C)C)c2C#N)C1O (stereo not drawn) [Compound D2]
Herbicidal damage score, ABUTH [1]: 5 | Herbicidal damage score, ALOMY [1]: 4 | Herbicidal damage score, AMARE [1]: 5 | Herbicidal damage score, ECHCG [1]: 5 | Herbicidal damage score, SETFA [1]: 5 | Herbicidal damage score, ZEAMX [1]: 3 | Pre-emergence herbicidal activity, damage score ABUTH [2]: 5 | Pre-emergence herbicidal activity, damage score ALOMY [2]: 4 | Pre-emergence herbicidal activity, damage score AMARE [2]: 5 | Pre-emergence herbicidal activity, damage score ECHCG [2]: 4 | Pre-emergence herbicidal activity, damage score SETFA [2]: 4 | Pre-emergence herbicidal activity, damage score ZEAMX [2]: 2

CC1=C(Cl)C(=O)N(c2nn(C)c(C(C)(C)C)c2Cl)C1O (stereo not drawn) [Compound D3]
Herbicidal damage score, ABUTH [1]: 5 | Herbicidal damage score, ALOMY [1]: 4 | Herbicidal damage score, AMARE [1]: 4 | Herbicidal damage score, ECHCG [1]: 5 | Herbicidal damage score, SETFA [1]: 5 | Herbicidal damage score, ZEAMX [1]: 4 | Pre-emergence herbicidal activity, damage score ABUTH [2]: 5 | Pre-emergence herbicidal activity, damage score ALOMY [2]: 3 | Pre-emergence herbicidal activity, damage score AMARE [2]: 5 | Pre-emergence herbicidal activity, damage score ECHCG [2]: 5 | Pre-emergence herbicidal activity, damage score SETFA [2]: 5 | Pre-emergence herbicidal activity, damage score ZEAMX [2]: 4

CC1=C(Cl)C(=O)N(c2nn(C)c(C(C)(C)CCl)c2Cl)C1O (stereo not drawn) [Compound D4]
Herbicidal damage score, ABUTH [1]: 5 | Herbicidal damage score, ALOMY [1]: 4 | Herbicidal damage score, AMARE [1]: 4 | Herbicidal damage score, ECHCG [1]: 5 | Herbicidal damage score, SETFA [1]: 4 | Herbicidal damage score, ZEAMX [1]: 0 | Pre-emergence herbicidal activity, damage score ABUTH [2]: 5 | Pre-emergence herbicidal activity, damage score ALOMY [2]: 3 | Pre-emergence herbicidal activity, damage score AMARE [2]: 2 | Pre-emergence herbicidal activity, damage score ECHCG [2]: 4 | Pre-emergence herbicidal activity, damage score SETFA [2]: 2 | Pre-emergence herbicidal activity, damage score ZEAMX [2]: 2

CSc1c(C#N)c(N2C(=O)C(Cl)=C(C)C2O)nn1C (stereo not drawn) [Compound D5]
Herbicidal damage score, ABUTH [1]: 0 | Herbicidal damage score, ALOMY [1]: 0 | Herbicidal damage score, AMARE [1]: 0 | Herbicidal damage score, ECHCG [1]: 0 | Herbicidal damage score, SETFA [1]: 0 | Herbicidal damage score, ZEAMX [1]: 0 | Pre-emergence herbicidal activity, damage score ABUTH [2]: 0 | Pre-emergence herbicidal activity, damage score ALOMY [2]: 0 | Pre-emergence herbicidal activity, damage score AMARE [2]: 0 | Pre-emergence herbicidal activity, damage score ECHCG [2]: 0 | Pre-emergence herbicidal activity, damage score SETFA [2]: 0 | Pre-emergence herbicidal activity, damage score ZEAMX [2]: 0

CCn1nc(N2C(=O)C(Cl)=C(C)C2O)c2c1C(C)(C)CC2 (stereo not drawn) [Compound E1]
Herbicidal damage score, ABUTH [1]: 5 | Herbicidal damage score, ALOMY [1]: 4 | Herbicidal damage score, AMARE [1]: 5 | Herbicidal damage score, ECHCG [1]: 5 | Herbicidal damage score, SETFA [1]: 5 | Herbicidal damage score, ZEAMX [1]: 4 | Pre-emergence herbicidal activity, damage score ABUTH [2]: 5 | Pre-emergence herbicidal activity, damage score ALOMY [2]: 4 | Pre-emergence herbicidal activity, damage score AMARE [2]: 5 | Pre-emergence herbicidal activity, damage score ECHCG [2]: 5 | Pre-emergence herbicidal activity, damage score SETFA [2]: 4 | Pre-emergence herbicidal activity, damage score ZEAMX [2]: 2
